Key:
[1] = tested on: lysogenic bacterium E. coli W1709 (λ); experiment: Prophage induction of lysogenic bacterium (ILB activity); assay type: cell-based; conditions: t/c ratio of plaque counts greater than 3.0
Protocol: The activity of prophage induction of lysogenic bacterium E. coli W1709 (λ) was determined according to the method disclosed by Lein et al. in Nature 196: 783-784 (1962). The plaque count was made on the agar plate containing test compound (t) and control plate (c). A t/c ratio of the plaque counts of greater than 3.0 was defined to be a significant level and lysogenic induction activity (ILB activity) was expressed by the minimum inducible concentration of the test compound.

Lewis lung carcinoma = experiment: Antitumor activity in mice, Lewis lung carcinoma; assay type: in vivo, BDF1 mice; conditions: copper-chelated form unless otherwise stated; for Antitumor activity Lewis lung (ED125): ip, once daily 11 days, dose giving T/C survival of 125%; for Antitumor therapeutic index Lewis Lung: single dose LD50/ED125
Source text: (§1) The antitumor activity of the tallysomycin derivatives was examined in four experimental tumor systems in mice. Lymphocytic leukemia P388 and Lewis lung carcinoma were implanted intraperitoneally into BDF1 mice of either sex at an inoculum size of 3×10^5 and 5×10^5 cells per mouse, respectively. Sarcoma 180 ascites tumor was inoculated intraperitoneally into male dd-strain mice with […] per mouse. Melanotic melanoma B16 was implanted subcutaneously into BDF1 mice with 5×10^5 cells per mouse. Twenty-four hours after the implantation of tumor cells, graded doses of test compounds were administered to mice intraperitoneally in an injection volume of 0.2 ml. per 10 grams of body weight. Test compounds were given once daily for 9 days (qd 1→9 schedule) except for the mice inoculated with Lewis lung carcinoma which were treated for 11 days (qd 1→11). Death or survival of the treated and non-treated (control) animals was recorded daily during the observation period of 45 days after the implantation of tumor cells, and the median survival time was calculated for each of the test (T) and control (C) groups. […] The actual dose giving a T/C of 125% was estimated by linear regression analysis and defined as the effective dose 125 or ED125. The effective dose 150 (ED150) was employed for the evaluation of antitumor effect against Sarcoma 180. In the B16 melanoma experiment the tumor size was measured on day 16 after tumor inoculation, and the dose giving 50% inhibition of tumor growth (ID50) was calculated from regression lines.
(§2) The antitumor therapeutic index was calculated for each derivative from the ratio of toxicity and antitumor activity.

[2] = tested on: Lymphocytic leukemia P388; experiment: animal or person; assay type: in vivo, BDF1 mice; conditions: copper-chelated form unless otherwise stated; for Antitumor activity P388 (ED125): ip, once daily 9 days, dose giving T/C survival of 125%; for Antitumor therapeutic index P388: single dose LD50/ED125
Source text: as §1, §2

[3] = Acute toxicity, single dose LD50; assay type: in vivo, dd mice; conditions: ip, 30 days observation, copper-chelated form unless otherwise stated
Protocol: Graded doses of test compounds were administered intraperitoneally to groups of dd mice. The injection was given one time only or once daily for 9 consecutive days. Death or survival of the animals was recorded for 30 days after the last dose of test compound to calculate the single or multiple median lethal dose (LD50).

[4] = tested on: Mycobacterium smegmatis strain M6-3; experiment: Relative antibacterial potency, paper-disc agar diffusion method; assay type: cell-based; conditions: relative to tallysomycin A standard=1000 mcg/mg
Protocol: The relative antibacterial potencies (tallysomycin A standard=1000 mcg/mg) of the tallysomycin derivatives were determined by the paper-disc agar diffusion method using Mycobacterium smegmatis strain M6-3 as the assay organism.

Sarcoma 180 = experiment: animal or person; assay type: in vivo, dd-strain mice; conditions: copper-chelated form unless otherwise stated; for Antitumor activity S180 (ED150): ip, once daily 9 days, effective dose 150, survival; for Antitumor therapeutic index S180: single dose LD50/ED150
Source text: as §1, §2

Mycobacterium 607 = experiment: MIC, two-fold agar dilution method; assay type: cell-based; conditions: nutrient agar
Protocol: (§3) The minimum inhibitory concentrations (MIC) of the semibiosynthetic tallysomycin derivatives of the present invention were determined against fungi and gram-positive, gram-negative and acid-fast bacteria by the two-fold agar dilution method. Nutrient agar was used for bacteria and Sabouraud agar for fungi. The results are shown in the table below comparatively with tallysomycin A and B.

[5] = tested on: Bacillus subtilis PCI 219; experiment: MIC, two-fold agar dilution method; assay type: cell-based; conditions: nutrient agar
Protocol: as §3

[6] = tested on: Staphylococcus aureus Smith; experiment: MIC, two-fold agar dilution method; assay type: cell-based; conditions: nutrient agar
Protocol: as §3

Proteus mirabilis A9554 = experiment: MIC, two-fold agar dilution method; assay type: cell-based; conditions: nutrient agar
Protocol: as §3

Escherichia coli NIHJ = experiment: MIC, two-fold agar dilution method; assay type: cell-based; conditions: nutrient agar
Protocol: as §3

[7] = tested on: Aspergillus fumigatus IAM 2593; experiment: MIC, two-fold agar dilution method; assay type: cell-based; conditions: Sabouraud agar
Protocol: as §3

[8] = tested on: Candida albicans IAM 4888; experiment: MIC, two-fold agar dilution method; assay type: cell-based; conditions: Sabouraud agar
Protocol: as §3

Sarcina lutea PCI1001 = experiment: MIC, two-fold agar dilution method; assay type: cell-based; conditions: nutrient agar
Protocol: as §3

Melanotic melanoma B16 = experiment: Antitumor activity in mice, melanotic melanoma B16; assay type: in vivo, BDF1 mice; conditions: copper-chelated form unless otherwise stated; for Antitumor activity B16 (ID50): ip, once daily 9 days, 50% inhibition of tumor growth, day 16, 23040 min; for Antitumor therapeutic index B16: single dose LD50/ID50
Source text: as §1, §2

Row | SMILES | ILB activity (minimum inducible concentration) [1] [µg/mL] | Antitumor activity Lewis lung (ED125) (Lewis lung carcinoma) [mg/kg/day] | Antitumor therapeutic index Lewis Lung (Lewis lung carcinoma) | Antitumor activity P388 (ED125) [2] [mg/kg/day] | Antitumor therapeutic index P388 [2] | LD50 single dose [3] [mg/kg/day] | Antibacterial potency [4] | Antitumor activity S180 (ED150) (Sarcoma 180) [mg/kg/day] | Antitumor therapeutic index S180 (Sarcoma 180) | minimum inhibitory concentration (MIC) (Mycobacterium 607) | minimum inhibitory concentration (MIC) [5] | minimum inhibitory concentration (MIC) [6] | minimum inhibitory concentration (MIC) (Proteus mirabilis A9554) | minimum inhibitory concentration (MIC) (Escherichia coli NIHJ) | minimum inhibitory concentration (MIC) [7] | minimum inhibitory concentration (MIC) [8] | minimum inhibitory concentration (MIC) (Sarcina lutea PCI1001) | Antitumor activity B16 (ID50) (Melanotic melanoma B16) [mg/kg/day] | Antitumor therapeutic index B16 (Melanotic melanoma B16)
1 | Cc1c(N)nc(C(CC(N)=O)NCC(N)C(N)=O)nc1C(=O)NC(C(=O)NC(C)C(O)CC(=O)NC(C(=O)NC(OC1OC(C)C(N)C(O)C1O)C(O)c1nc(-c2nc(C(=O)NCCCN)cs2)cs1)C(C)O)C(OC1OC(CO)C(O)C(O)C1OC1OC(CO)C(O)C(OC(N)=O)C1O)c1c[nH]cn1 (stereo not shown) [Tallysomycin S1b] | 0.31 | 0.12 | 158 | 2.0 | 10 | 19 | 1,000 μ/mg | 0.11 | 173 | < 0.05 | < 0.05 | 1.6 | 1.6 | 0.4 | 1.6 | 12.5 | 1.6 | 0.15 | 127
2 | Cc1c(N)nc(C(CC(N)=O)NCC(N)C(N)=O)nc1C(=O)NC(C(=O)NC(C)C(O)CC(=O)NC(C(=O)NC(OC1OC(C)C(N)C(O)C1O)C(O)c1nc(-c2nc(C(=O)NCCCC(N)CC(=O)NCCC[S+](C)C)cs2)cs1)C(C)O)C(OC1OC(CO)C(O)C(O)C1OC1OC(CO)C(O)C(OC(N)=O)C1O)c1c[nH]cn1 (stereo not shown) [Tallysomycin S2a] | 0.31 | 0.14 | 179 | > 3.0 | < 8 | 25 | 350 μ/mg | 0.07 | 357 | < 0.05 | < 0.05 | 0.2 | 0.2 | < 0.05 | 0.4 | 6.3 | 0.8 | 0.17 | 147
3 | Cc1c(N)nc(C(CC(N)=O)NCC(N)C(N)=O)nc1C(=O)NC(C(=O)NC(C)C(O)CC(=O)NC(C(=O)NC(OC1OC(C)C(N)C(O)C1O)C(O)c1nc(-c2nc(C(=O)NCCCN(C)C)cs2)cs1)C(C)O)C(OC1OC(CO)C(O)C(O)C1OC1OC(CO)C(O)C(OC(N)=O)C1O)c1c[nH]cn1 (stereo not shown) [Tallysomycin S7b] | 0.08 |  |  | 2.1 | 14 | 30 | 380 μ/mg | 0.14 | 214 | 3.1 | 0.1 | 6.3 | 6.3 | 0.4 | 0.4 | > 50 | 12.5 | 0.16 | 188
4 | Cc1c(N)nc(C(CC(N)=O)NCC(N)C(N)=O)nc1C(=O)NC(C(=O)NC(C)C(O)CC(=O)NC(C(=O)NC(OC1OC(C)C(N)C(O)C1O)C(O)c1nc(-c2nc(C(=O)NCCCC(N)CC(=O)NCCCCN)cs2)cs1)C(C)O)C(OC1OC(CO)C(O)C(O)C1OC1OC(CO)C(O)C(OC(N)=O)C1O)c1c[nH]cn1 (stereo not shown) [Tallysomycin S10a] | 0.16 |  |  | 0.28 | 96 | 27 | 1,450 μ/mg | 0.08 | 338 | 0.2 | 0.04 | 1.6 | 0.8 | 0.4 | 1.6 | 3.1 | 0.4 | 0.39 | 69
5 | Cc1c(N)nc(C(CC(N)=O)NCC(N)C(N)=O)nc1C(=O)NC(C(=O)NC(C)C(O)CC(=O)NC(C(=O)NC(OC1OC(C)C(N)C(O)C1O)C(O)c1nc(-c2nc(C(=O)NCCCN3CCOCC3)cs2)cs1)C(C)O)C(OC1OC(CO)C(O)C(O)C1OC1OC(CO)C(O)C(OC(N)=O)C1O)c1c[nH]cn1 (stereo not shown) [Tallysomycin S12b] | 0.31 |  |  | 1.30 | > 38 | > 50 | 390 μ/mg | 0.06 | > 833 | 0.2 | 0.4 | 12.5 | 50 | 1.6 | 25 | > 100 | 12.5 | 1.30 | > 38
6 | Cc1c(N)nc(C(CC(N)=O)NCC(N)C(N)=O)nc1C(=O)NC(C(=O)NC(C)C(O)CC(=O)NC(C(=O)NC(OC1OC(C)C(N)C(O)C1O)C(O)c1nc(-c2nc(C(=O)NCCCN3CCCCC3C)cs2)cs1)C(C)O)C(OC1OC(CO)C(O)C(O)C1OC1OC(CO)C(O)C(OC(N)=O)C1O)c1c[nH]cn1 (stereo not shown) [Tallysomycin S13b] | 0.08 |  |  | 0.70 | 50 | 35 | 1,090 μ/mg | 0.33 | 106 | 0.2 | 0.8 | 6.3 | 12.5 | 0.4 | 12.5 | > 100 | 6.3 | 0.23 | 152
